# Assay results: patent publication US6723897B2, “Methods for controlling gibberellin levels” (Monsanto Technology, LLC, priority 1998, dated 2004)
# Where “and” joins values, the source holds several entries; their conditions need not be identical. Equal entries are not always repeated.
# Key:
# [1] = tested on: pMON29801 soybean line 719; experiment: Foliar GA3 spray, stature of FMV/asCPScc soybean; format: in vivo, Glycine max
# Text: A foliar spray of GA3 restores normal stature of Line 719 plants. GA3 restores normal vegetative development (Table 6) when sprayed on the foliage of GA-deficient dwarf plants during vegetative development at rates between 10^−4 and 10^−6 M plus a surfactant (Tween 20, 0.05% v/v).
# [2] = tested on: soybean (A3237) in sand saturated with 3 mg/L ancymidol; experiment: GA3 seed coating, reversal of ancymidol inhibition of soybean stature; format: in vivo, Glycine max; conditions: 3 mg GA3/kg seed (Release blended with talc); plant height at 6 DAP
# Description: The timing of emergence and plant stature at for transgenic (plasmid pMON29801, FMV/asCPScc) soybean line 724 is rescued by sowing seeds in soil saturated with 3×10^−6 M GA3. At 7 days after planting (DAP), the GA3 treatment to the seeds rescued plant stature to within 10% of the A3237 control. As an additional control, soybean (A3237) seeds are coated with different concentrations of a commercial formulation of GA3 (Release®) blended with talc and sown in sand saturated with 3 mg/L ancymidol and grown in a greenhouse. Plant height is measured at 6 DAP. […] This rate is equivalent to approximately 62 mg GA3 per acre (assuming 140,000 seeds/acre).
# [3] = tested on: wild-type soybean variety A4922; experiment: GA3 seed treatment, soybean stand count and yield in the field; format: in vivo, Glycine max
# Text: Treated seed is planted about 1 inch deep in previously disced soil using a cone planter. The rows are about 30 inches (76.2 cm) apart, and 15 feet (457.2 cm) long. Seeds are spaced about 3 inches (7.62 cm) apart within the rows. The emerged plants are counted periodically, and seed yields are obtained at harvest. The plant counts and yields are converted to a per acre basis. […] The decrease in plant population per acre is due to lack of emergence, in part due to broken and unhooked hypocotyls. In addition, some of the emerged plants are abnormal, e.g., with small, broken cotyledons, etc.
# [4] = tested on: wild-type (A3237) soybean; experiment: Hilum treatment with GA15, GA19, GA24, GA44, hypocotyl length, wild-type soybean; conditions: 10 μg/seed, 5 DAP
# Description: The purpose of this experiment is to evaluate potential gibberellin rescue agents occurring at an intermediate or middle portion of the gibberellin biosynthesis pathway (between GA53/GA12 and GA20/GA9) as seed treatments. These GA compounds are tested using hilum treatment and comparing activity on GA-deficient soybean plants and normal (wild-type) plants.
# Wild-type A3237 soybeans are obtained from Asgrow Seed Company. Transgenic seeds are fifth generation (R5) line 719 seeds.
# The GA compounds are dissolved in absolute ethanol at a concentration of approximately 10 μg/ml. Compounds are applied to the hilum of dry soybean seed as 1 μl drops. Seeds are sown in 4-inch plastic pots (2 pots per treatment; 5 seeds/pot) containing commercial potting soil (Metromix 200) placed in a greenhouse set for 12 hr light, and day and night temperatures of 85° F. (29° C.) and 75° F. (24° C.), respectively. After all treatments are emerged (5 DAP), hypocotyl length is measured.
# [5] = 'no GA': single spray treatment at 21 DAP with GA, not further sprayed
# [6] = GA sprayed approximately every week starting at 21 DAP
smiles,measurement,setting,value
"C=C1C[C@]23C[C@@]1(O)CC[C@H]2[C@@]12C=C[C@H](O)[C@@](C)(C(=O)O1)[C@H]2[C@@H]3C(=O)O [GA3, gibberellic acid]","Plant height (cm), 21 DAP",[1]; [5],2.0 cm and 2.5 cm
same,"Plant height (cm), 50 DAP",[1]; [5],13 cm
same,"Plant height (cm), 21 DAP",[1]; [6],2.5 cm
same,"Plant height (cm), 50 DAP",[1]; [6],61 cm and 56 cm
same,reversal of ancymidol inhibition of soybean stature,[2],Good reversal of ancymidol inhibition of soybean stature
same,Plants per Acre,[3]; 5 ppm GA3 seed treatment,"41,458"
same,Yield (bushels/acre),[3]; 5 ppm GA3 seed treatment,41.6 bushels/acre
same,Plants per Acre,[3]; 10 ppm GA3 seed treatment,"35,133"
same,Yield (bushels/acre),[3]; 10 ppm GA3 seed treatment,31.9 bushels/acre
same,Plants per Acre,[3]; 15 ppm GA3 seed treatment,"30,566"
same,Yield (bushels/acre),[3]; 15 ppm GA3 seed treatment,31.4 bushels/acre
same,hypocotyl elongation of wild-type (A3237) soybean (FIG. 41),[4],overelongation of A3237 hypocotyls
